In ChEMBL document CHEMBL1201862, “PubChem BioAssay data set” (2004):
Active and inactive are the calls of the source.

Key:
Troponin, cardiac muscle = Troponin, cardiac muscle (Homo sapiens, UniProt P19429+P45379+P63316); assay: Fluorescence-based biochemical high throughput dose response assay for activators of the calcium sensitivity of cardiac Regulated Thin Filaments (RTF). [Related pubchem assays (depositor defined):AID493008, AID493018, AID504382, AID504383]; type: protein-complex assay
Beta-lactamase [1] = target: Beta-lactamase (Pseudomonas aeruginosa, UniProt Q79MP6);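 also: biochemical dose-response test of metallo-beta-lactamase enzyme inhibition, read out by epi-absorbance; purified recombinant IMP-1 metallo-beta-lactamase with nitrocefin as substrate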
Beta-lactamase [2] = target: Beta-lactamase (Salmonella choleraesuis (strain SC-B67), UniProt Q5J463)
HeLa = assay: HeLa cell cytotoxicity, dose response, cytotoxicity control, 24 h, cherry-picked samples (AID 504726); type: functional, cell-based; conditions: Homo sapiens;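 also: potency for cytotoxicity as loss of luminescence signal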
ORF 73 = ORF 73 (Human herpesvirus 8, UniProt O40947); assay: inhibitors of C-LANA binding to LBS DNA, dose response, biochemical, fluorescence polarization, cherry-picked samples (AID 504725); design: species or system Human gammaherpesvirus 8;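 also: fluorescence polarization of a labeled DNA duplex reporting LANA DNA binding; potency is for inhibitors that block LANA binding to the DNA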
[3] = target: T1, Kappa-type opioid receptor (Homo sapiens, UniProt P41145); assay: SAR analysis of small molecule antagonists of the kappa opioid receptor via a luminescent beta-arrestin assay - Set 3. [Related pubchem assays (depositor defined):AID1777, AID1778, AID1785, AID1786, AID1966, AID2133, AID2136, AID2285, AID2495]; type: functional
[4] = target: Delta-type opioid receptor (Homo sapiens, UniProt P41143); assay: SAR Analysis of Antagonists of the DOR Receptor using an Image-Based Assay - Set 3. [Related pubchem assays (depositor defined):AID1777, AID1785]; type: functional;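 also: U2OS cells expressing DOR1 and beta-arrestin GFP stimulated with 100 nM SNC80; imaging of GFP-tagged beta-arrestin moving into spots after receptor activation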
Mu-type opioid receptor = Mu-type opioid receptor (Homo sapiens, UniProt P35372); assay: SAR Analysis of Antagonists of the MOR Receptor using an Image-Based Assay - Set 3. [Related pubchem assays (depositor defined):AID1777, AID1785, AID1786, AID1966, AID2133, AID2136, AID2284, AID2285, AID2420]; type: functional
[5] = target: T1, Kappa-type opioid receptor; assay: SAR analysis of Antagonists of the Kappa Opioid Receptor (KOR) using an Image-Based Assay - Set 3. [Related pubchem assays (depositor defined):AID1777, AID1785]; type: functional
Hexokinase-1 = target: T2, Hexokinase-1 (Homo sapiens, UniProt P19367); assay: hexokinase 1 activators, dose response, selectivity assay for HKDC1 activator project, biochemical (AID 504762); type: functional
T2 sequence (P19367 whole entry): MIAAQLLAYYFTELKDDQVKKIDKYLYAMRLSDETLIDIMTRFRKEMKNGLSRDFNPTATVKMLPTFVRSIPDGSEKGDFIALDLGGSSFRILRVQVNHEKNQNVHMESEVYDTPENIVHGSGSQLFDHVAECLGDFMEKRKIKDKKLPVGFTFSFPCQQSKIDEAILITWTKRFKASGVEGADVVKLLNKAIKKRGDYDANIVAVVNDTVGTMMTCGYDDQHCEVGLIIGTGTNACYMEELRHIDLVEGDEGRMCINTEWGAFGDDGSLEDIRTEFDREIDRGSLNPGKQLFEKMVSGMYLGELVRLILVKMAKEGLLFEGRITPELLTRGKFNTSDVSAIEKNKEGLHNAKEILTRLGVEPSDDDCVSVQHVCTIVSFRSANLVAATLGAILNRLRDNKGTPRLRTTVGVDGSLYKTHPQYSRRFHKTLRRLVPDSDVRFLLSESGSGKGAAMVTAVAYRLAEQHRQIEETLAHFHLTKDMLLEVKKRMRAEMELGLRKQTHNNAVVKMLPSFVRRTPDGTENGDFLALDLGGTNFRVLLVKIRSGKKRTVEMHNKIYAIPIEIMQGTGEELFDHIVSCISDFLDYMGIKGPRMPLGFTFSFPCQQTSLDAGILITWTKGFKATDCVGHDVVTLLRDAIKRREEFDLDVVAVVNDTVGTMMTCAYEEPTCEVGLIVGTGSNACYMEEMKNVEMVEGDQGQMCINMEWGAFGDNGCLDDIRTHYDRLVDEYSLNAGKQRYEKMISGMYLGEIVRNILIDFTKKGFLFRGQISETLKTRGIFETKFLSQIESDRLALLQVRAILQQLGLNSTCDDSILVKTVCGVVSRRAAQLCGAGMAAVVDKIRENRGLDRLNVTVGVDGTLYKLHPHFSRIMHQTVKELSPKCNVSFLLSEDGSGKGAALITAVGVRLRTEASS

[6] = target: T3, Voltage-gated N-type calcium channel alpha-1B subunit/Amyloid beta A4 precursor protein-binding family A member 1 (Homo sapiens, UniProt Q00975+Q02410); type: protein assay
[7] = target: T3, Voltage-gated N-type calcium channel alpha-1B subunit/Amyloid beta A4 precursor protein-binding family A member 1; type: protein assay; remark: listed apart in the source
[8] = target: Induced myeloid leukemia cell differentiation protein Mcl-1 (Homo sapiens, UniProt Q07820); type: functional
Hexokinase HKDC1 = target: T4, Hexokinase HKDC1 (Homo sapiens, UniProt Q2TB90); assay: HKDC1 hexokinase activators, dose response, biochemical, W721R variant (AID 504730); type: functional
T4 sequence (Q2TB90 whole entry): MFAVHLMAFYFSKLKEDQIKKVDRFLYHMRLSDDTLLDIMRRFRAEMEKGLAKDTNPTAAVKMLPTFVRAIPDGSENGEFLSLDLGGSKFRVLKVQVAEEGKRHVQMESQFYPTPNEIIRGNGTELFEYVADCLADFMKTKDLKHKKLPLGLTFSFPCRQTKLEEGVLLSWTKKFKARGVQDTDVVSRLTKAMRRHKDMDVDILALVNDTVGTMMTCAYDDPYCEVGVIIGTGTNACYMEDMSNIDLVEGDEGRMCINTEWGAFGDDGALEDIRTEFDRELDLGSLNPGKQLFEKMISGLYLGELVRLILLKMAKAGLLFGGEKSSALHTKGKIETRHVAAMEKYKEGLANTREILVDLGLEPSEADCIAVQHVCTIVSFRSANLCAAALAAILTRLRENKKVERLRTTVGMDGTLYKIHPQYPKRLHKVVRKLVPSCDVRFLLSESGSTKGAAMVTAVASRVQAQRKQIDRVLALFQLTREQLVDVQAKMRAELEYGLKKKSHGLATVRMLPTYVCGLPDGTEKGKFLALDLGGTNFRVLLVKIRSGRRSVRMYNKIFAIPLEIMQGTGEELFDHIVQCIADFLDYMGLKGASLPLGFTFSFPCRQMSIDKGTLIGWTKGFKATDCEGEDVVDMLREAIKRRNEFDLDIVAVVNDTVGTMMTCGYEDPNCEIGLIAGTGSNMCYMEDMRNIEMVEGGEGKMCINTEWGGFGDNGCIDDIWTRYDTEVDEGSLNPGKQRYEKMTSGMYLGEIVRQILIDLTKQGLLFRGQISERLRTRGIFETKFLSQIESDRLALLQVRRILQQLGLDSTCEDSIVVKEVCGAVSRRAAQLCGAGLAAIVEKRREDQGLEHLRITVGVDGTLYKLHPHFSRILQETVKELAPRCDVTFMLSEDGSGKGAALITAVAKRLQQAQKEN

[9] = target: T5, Runt-related transcription factor 1/Core-binding factor subunit beta (Homo sapiens, UniProt Q01196+Q13951); assay: inhibitors of RUNX1 Runt–CBFb-SMMHC binding, biochemical, TR-FRET (AID 1438); type: protein assay
[10] = target: T5, Runt-related transcription factor 1/Core-binding factor subunit beta; assay: inhibitors of RUNX1 Runt–CBFb-SMMHC binding, primary screen, biochemical, FRET, Cerulean-Runt, Venus-CBFb-SMMHC, uHTS (AID 1434); type: protein assay;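 also: partner is the CBFb-SMMHC leukemia fusion protein rather than wild-type CBFb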
Protein RecA = target: T6, Protein RecA (Mycobacterium tuberculosis, UniProt P9WHJ3); assay: Fluorescence Cell-Free Homogeneous Dose Retest to Identify Inhibitors of RecA-Intein Splicing Activity. [Related pubchem assays (depositor defined):AID2097, AID2223, AID489010, AID492950]; type: functional
T6 sequence (P9WHJ3 whole entry): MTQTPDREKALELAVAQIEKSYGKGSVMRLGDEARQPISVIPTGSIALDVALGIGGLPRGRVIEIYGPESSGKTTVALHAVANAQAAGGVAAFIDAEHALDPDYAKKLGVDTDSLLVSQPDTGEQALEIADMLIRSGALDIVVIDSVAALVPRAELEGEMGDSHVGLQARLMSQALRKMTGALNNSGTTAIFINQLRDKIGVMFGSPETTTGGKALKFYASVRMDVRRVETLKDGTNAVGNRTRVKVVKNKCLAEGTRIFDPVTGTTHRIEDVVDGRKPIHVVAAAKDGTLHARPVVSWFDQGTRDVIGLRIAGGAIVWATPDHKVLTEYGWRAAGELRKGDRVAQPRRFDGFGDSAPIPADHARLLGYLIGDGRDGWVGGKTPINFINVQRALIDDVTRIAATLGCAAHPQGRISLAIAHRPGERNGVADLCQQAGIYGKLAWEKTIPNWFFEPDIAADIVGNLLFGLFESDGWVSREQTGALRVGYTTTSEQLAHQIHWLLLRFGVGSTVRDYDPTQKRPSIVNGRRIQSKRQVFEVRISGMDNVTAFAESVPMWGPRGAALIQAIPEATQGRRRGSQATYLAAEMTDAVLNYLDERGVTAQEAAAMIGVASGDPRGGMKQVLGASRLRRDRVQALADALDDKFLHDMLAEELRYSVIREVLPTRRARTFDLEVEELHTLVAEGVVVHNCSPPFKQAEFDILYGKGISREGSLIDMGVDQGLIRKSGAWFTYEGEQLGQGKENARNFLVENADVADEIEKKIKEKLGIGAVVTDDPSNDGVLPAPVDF

[11] = target: T7, Sphingosine 1-phosphate receptor 4 (Homo sapiens, UniProt O95977); assay: Fluorescence dose response cell-based high throughput screening assay for antagonists of the Sphingosine 1-Phosphate Receptor 4 (S1P4). [Related pubchem assays: 1524 (Confirmation in triplicates.), 1510 (Primary screen.)]; type: functional
T7 sequence (O95977 whole entry): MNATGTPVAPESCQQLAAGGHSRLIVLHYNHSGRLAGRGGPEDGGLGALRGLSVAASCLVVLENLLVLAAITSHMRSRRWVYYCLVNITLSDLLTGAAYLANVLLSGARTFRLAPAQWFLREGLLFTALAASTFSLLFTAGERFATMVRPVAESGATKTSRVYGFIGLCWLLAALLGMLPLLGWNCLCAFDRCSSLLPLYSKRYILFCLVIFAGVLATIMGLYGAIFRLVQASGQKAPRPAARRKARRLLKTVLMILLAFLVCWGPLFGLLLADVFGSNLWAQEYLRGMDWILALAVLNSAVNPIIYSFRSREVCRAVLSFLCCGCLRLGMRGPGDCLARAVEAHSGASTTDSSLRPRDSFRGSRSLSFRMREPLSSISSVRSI

[12] = Intein inhibitors as potential Tuberculosis drugs, a cytotoxicity screen. [Related pubchem assays (depositor defined):AID2221, AID2223, AID434968, AID435010, AID449749, AID449750, AID489010]; type: functional
INS1 = assay: beta cell apoptosis inhibitors, cytokine rescue, dose response, luminescence, retest (AID 449756); type: functional, cell-based; conditions: Rattus norvegicus;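 also: cell death triggered by IL-1 beta plus TNF-alpha plus IFN-gamma mixture; protective hits raise ATP signal compared with cytokine alone wells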
[13] = target: T8, Replicative DNA helicase DnaB (Mycobacterium tuberculosis, UniProt P9WMR3); assay: DnaB intein splicing inhibitors, dose response, biochemical, cell-free fluorescence (AID 449749); type: functional
T8 sequence (P9WMR3 whole entry): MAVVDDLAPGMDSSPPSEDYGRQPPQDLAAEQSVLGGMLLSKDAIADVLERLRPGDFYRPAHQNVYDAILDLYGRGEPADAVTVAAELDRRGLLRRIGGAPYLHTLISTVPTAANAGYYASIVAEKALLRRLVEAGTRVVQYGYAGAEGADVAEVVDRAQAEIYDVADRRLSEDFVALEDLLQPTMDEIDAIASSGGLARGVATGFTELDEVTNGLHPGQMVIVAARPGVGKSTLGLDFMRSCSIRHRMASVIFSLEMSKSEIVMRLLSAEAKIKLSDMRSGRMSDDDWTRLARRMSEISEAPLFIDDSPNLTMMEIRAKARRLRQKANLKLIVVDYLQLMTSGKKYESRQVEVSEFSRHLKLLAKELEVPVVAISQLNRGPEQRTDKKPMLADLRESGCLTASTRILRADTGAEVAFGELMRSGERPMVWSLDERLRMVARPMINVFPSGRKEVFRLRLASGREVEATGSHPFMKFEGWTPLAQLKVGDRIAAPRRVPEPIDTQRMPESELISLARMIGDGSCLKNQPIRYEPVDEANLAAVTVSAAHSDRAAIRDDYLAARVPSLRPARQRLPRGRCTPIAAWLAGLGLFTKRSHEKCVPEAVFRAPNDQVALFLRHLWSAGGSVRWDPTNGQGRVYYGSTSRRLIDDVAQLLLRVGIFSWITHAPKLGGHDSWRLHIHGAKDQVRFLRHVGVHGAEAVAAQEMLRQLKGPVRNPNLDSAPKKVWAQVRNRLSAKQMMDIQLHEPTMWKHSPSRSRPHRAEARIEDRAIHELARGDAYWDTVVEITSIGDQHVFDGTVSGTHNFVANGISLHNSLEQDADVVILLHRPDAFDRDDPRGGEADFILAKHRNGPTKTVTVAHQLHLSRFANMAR

Vero = assay: host cell cytotoxicity of antiviral hits, dose response, cytotoxicity control for West Nile virus antiviral project, secondary assay (AID 1650); type: functional; conditions: Chlorocebus sabaeus
[14] = target: Sphingosine 1-phosphate receptor 1 (Homo sapiens, UniProt P21453); type: functional;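 also: Tango beta-arrestin reporter U2OS cells stimulated with S1P near its EC80; inhibitor potency meaning antagonism of receptor activation by the natural agonist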

SMILES: O=[N+]([O-])c1ccc(N2CCCCCC2)c2nonc12
- EC50 (Troponin, cardiac muscle): 0.413 µM (active)
- IC50 (Beta-lactamase [1]): > 59.6 µM (inactive)
- IC50 (Beta-lactamase [2]): 22.4 µM (inactive)
- AC50 (HeLa): 69.4 µM (active)
- AC50 (ORF 73): 54.6 µM (active)

SMILES: CCc1ccc(S(=O)(=O)NCc2ccc(C(=O)NCCN(C)[C@@H](C)c3ccccc3)cc2)cc1
- IC50 [3]: 3.75 µM (active)
- IC50 [4]: > 32 µM (inactive)
- IC50 (Mu-type opioid receptor): > 32 µM (inactive)
- IC50 [5]: 0.749 µM (active)

SMILES: CC(=O)Nc1ccc(C2=NN=C(Nc3ccc(S(=O)(=O)N4CCOCC4)cc3)SC2)cc1
- EC50 (Hexokinase-1): 7.65 µM (active)
- IC50 [6]: > 50 µM (inactive)
- IC50 [7]: 13.8 µM (active)
- IC50 [8]: 1.61 µM (active)
- EC50 (Hexokinase HKDC1): 7.92 µM (active)

SMILES: COc1cccc(-c2nc(-c3ccc4c(c3)-c3ccccc3S4(=O)=O)c(-c3ccccc3)[nH]2)c1OC
- IC50 [9]: > 100 µM (inactive)
- IC50 [10]: 33.6 µM (active)

SMILES: Cc1c(/C=N/Nc2nc3ccccc3[nH]2)c2ccccc2n1C
- EC50 (Protein RecA): 1.99 µM (active)
- IC50 [11]: 1.76 µM (active)
- CC50 [12]: 18.1 µM (active)
- AC50 (INS1): 4.83 µM (active)
- AC50 [13]: 3.82 µM (active)
- CC50 (Vero): 39.2 µM (active)
- IC50 [14]: 6.78 µM (active)
